Data published in patent publication US8039493B2, “Biaryl sulfonamide derivatives” (Hoffmann-La Roche Inc., priority 2008, dated 2011).

Tests used:
human LXR alpha = biological target: T1, human LXR alpha (Homo sapiens, UniProt Q13133); experiment: Radioligand binding assay (scintillation proximity), LXRα-LBD; conditions: LXRα-LBD on SPA beads, read-out: LXRalpha Binding IC50
T1 construct: human LXR alpha (aa 164 to 447); made in house; host or cells: E. coli BL21 (pLysS)
T1 sequence (Q13133 164-447): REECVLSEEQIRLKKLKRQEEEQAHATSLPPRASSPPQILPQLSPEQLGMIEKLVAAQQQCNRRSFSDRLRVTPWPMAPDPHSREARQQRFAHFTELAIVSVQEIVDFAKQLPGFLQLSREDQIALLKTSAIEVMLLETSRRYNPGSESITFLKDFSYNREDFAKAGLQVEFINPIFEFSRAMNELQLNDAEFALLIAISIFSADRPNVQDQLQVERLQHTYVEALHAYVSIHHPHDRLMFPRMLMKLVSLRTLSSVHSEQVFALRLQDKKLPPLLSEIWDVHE
Experimental: (§1) The following tests were carried out in order to determine the activity of the compounds of the present invention. […] Mammalian expression vectors were constructed to express full-length human LXR alpha and LXR beta. […] To accomplish this, the portions of the sequences encoding the LBDs were amplified from the full-length clones by PCR and then subcloned into the plasmid vectors.
(§2) Induction, expression, and purification of LBD proteins were performed in E. coli strain BL21 (pLysS) cells by standard methods (Ref: Current Protocols in Molecular Biology, Wiley Press, edited by Ausubel et al).
(§3) Radioligand Binding Assay
(§4) LXR alpha and LXR beta receptor binding were assayed in buffer consisting of 50 mM HEPES, pH 7.4, 10 mM NaCl, 5 mM MgCl2. For each 96-well reaction, 500 ng of LXRα-LBD or 700 ng of LXR beta-LBD proteins were bound to 80 μg or 40 μg SPA beads respectively, in a final volume of 50 μl by shaking. The resulting slurry was incubated for 1 h at RT and centrifuged for 2 min at 1300×g. The supernatant containing unbound protein was removed, and the semi-dry pellet containing the receptor-coated beads was re-suspended in 50 μl of buffer. Radioligand (eg. 100,000 dpm of (N-(2,2,2-trifluoroethyl)-N-[4-(2,2,2-trifluoro-1-hydroxy-1-trifluoromethylethyl)-phenyl]-benzenesulfonamide)) was added, and the reaction incubated at RT for 1 h in the presence of test compounds, and then scintillation proximity counting was performed. All binding assays were performed in 96-well plates and the amount of bound ligand was measured on a Packard TopCount using OptiPlates (Packard). Dose response curves were measured within a range of concentration from 10^−10 M to 10^−4 M.

human LXR beta = biological target: T2, human LXR beta (Homo sapiens, UniProt P55055); experiment: Radioligand binding assay (scintillation proximity), LXR beta-LBD; conditions: LXR beta-LBD on SPA beads, read-out: LXRbeta Binding IC50
T2 construct: human LXR beta (aa 155 to 460); made in house; host or cells: E. coli BL21 (pLysS)
T2 sequence (P55055 155-460): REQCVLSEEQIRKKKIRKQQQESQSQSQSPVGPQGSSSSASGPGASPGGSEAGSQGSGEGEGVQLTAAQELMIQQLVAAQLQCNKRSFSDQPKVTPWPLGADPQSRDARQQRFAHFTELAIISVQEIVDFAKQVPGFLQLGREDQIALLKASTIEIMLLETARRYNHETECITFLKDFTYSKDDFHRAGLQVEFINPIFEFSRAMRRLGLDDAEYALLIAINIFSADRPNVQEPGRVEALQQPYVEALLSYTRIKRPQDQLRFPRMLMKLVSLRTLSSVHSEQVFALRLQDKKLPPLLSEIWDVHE
Experimental: as §1, §2, §3, §4

## Cc1noc(C)c1CN(Cc1ccc(-c2cccc(S(C)(=O)=O)c2)s1)S(=O)(=O)c1ccccc1C(F)(F)F [Example 34, N-(3,5-Dimethyl-isoxazol-4-ylmethyl)-N-[5-(3-methanesulfonyl-phenyl)-thiophen-2-ylmethyl]-2-trifluoromethyl-benzenesulfonamide]
Human LXR alpha
  IC50: 60.5 nM
Human LXR beta
  IC50: 83 nM

## Cc1ccc(F)cc1S(=O)(=O)N(Cc1ccc(-c2cccc(S(C)(=O)=O)c2)s1)CC(C)C [Example 24, 5-Fluoro-N-isobutyl-N-[5-(3-methanesulfonyl-phenyl)-thiophen-2-ylmethyl]-2-methyl-benzenesulfonamide]
Human LXR alpha
  IC50: 165 nM
Human LXR beta
  IC50: 28.5 nM

## CC(C)CN(Cc1cc(-c2cccc(S(C)(=O)=O)c2)cs1)S(=O)(=O)c1ccccc1Cl [Example 14, 2-Chloro-N-isobutyl-N-[4-(3-methanesulfonyl-phenyl)-thiophen-2-ylmethyl]-benzenesulfonamide]
Human LXR alpha
  IC50: 68 nM
Human LXR beta
  IC50: 2.2 nM

## CCCN(Cc1cccc(-c2cccc(S(C)(=O)=O)c2)c1)S(=O)(=O)C(C)C [Example 49, Propane-2-sulfonic acid (3′-methanesulfonyl-biphenyl-3-ylmethyl)-propyl-amide]
Human LXR alpha
  IC50: 20100 nM
Human LXR beta
  IC50: 1560 nM

## CC(C)CN(Cc1cc(-c2cccc(S(N)(=O)=O)c2)cs1)S(=O)(=O)c1ccccc1Cl [Example 54, 2-Chloro-N-isobutyl-N-[4-(3-aminosulfonyl-phenyl)-thiophen-2-ylmethyl]-benzenesulfonamide]
Human LXR alpha
  IC50: 84.5 nM
Human LXR beta
  IC50: 7.4 nM

## CC(C)S(=O)(=O)N(Cc1ccc(F)cc1)Cc1cccc(-c2cccc(S(C)(=O)=O)c2)c1 [Example 53, Propane-2-sulfonic acid (4-fluoro-benzyl)-(3′-methanesulfonyl-biphenyl-3-ylmethyl)-amide]
Human LXR alpha
  IC50: 2800 nM
Human LXR beta
  IC50: 255 nM

## CS(=O)(=O)c1cccc(-c2ccc(CN(CC3CCCO3)S(=O)(=O)c3ccccc3C(F)(F)F)s2)c1 (centres unmarked) [Example 41, N-[5-(3-Methanesulfonyl-phenyl)-thiophen-2-ylmethyl]-N-(tetrahydro-furan-2-ylmethyl)-2-trifluoromethyl-benzenesulfonamide]
Human LXR alpha
  IC50: 790 nM
Human LXR beta
  IC50: 37 nM

## CC(C)CN(Cc1ccc(-c2cccc(S(C)(=O)=O)c2)s1)S(=O)(=O)c1ccccc1C#N [Example 26, 2-Cyano-N-isobutyl-N-[5-(3-methanesulfonyl-phenyl)-thiophen-2-ylmethyl]-benzenesulfonamide]
Human LXR alpha
  IC50: 15900 nM
Human LXR beta
  IC50: 98 nM

## CCN(Cc1ccc(-c2cccc(S(C)(=O)=O)c2)s1)S(=O)(=O)c1ccccc1C(F)(F)F [Example 28, N-Ethyl-N-[5-(3-methanesulfonyl-phenyl)-thiophen-2-ylmethyl]-2-trifluoromethyl-benzenesulfonamide]
Human LXR alpha
  IC50: 19900 nM
Human LXR beta
  IC50: 440 nM

## CC(C)CN(Cc1cc(-c2cccc(S(=O)(=O)NC(C)(C)C)c2)cs1)S(=O)(=O)c1ccccc1Cl [Example 56, 2-Chloro-N-isobutyl-N-[4-(3-tert-butylaminosulfonyl-phenyl)-thiophen-2-ylmethyl]-benzenesulfonamide]
Human LXR alpha
  IC50: 17700 nM
Human LXR beta
  IC50: 39100 nM

## CC(C)CN(Cc1ccc(-c2cccc(S(C)(=O)=O)c2)s1)S(=O)(=O)c1cccc(Cl)c1 [Example 8, 3-Chloro-N-isobutyl-N-[5-(3-methanesulfonyl-phenyl)-thiophen-2-ylmethyl]-benzenesulfonamide]
Human LXR alpha
  IC50: 925 nM
Human LXR beta
  IC50: 560 nM

## CC(C)CN(Cc1ccc(-c2cccc(S(C)(=O)=O)c2)s1)S(C)(=O)=O [Example 15, N-Isobutyl-N-[5-(3-methanesulfonyl-phenyl)-thiophen-2-ylmethyl]-methanesulfonamide]
Human LXR alpha
  IC50: 48700 nM
Human LXR beta
  IC50: 7060 nM

## CC(C)CN(Cc1ccnc(-c2cccc(S(C)(=O)=O)c2)c1)S(=O)(=O)c1ccccc1Cl [Example 48, 2-Chloro-N-isobutyl-N-[2-(3-methanesulfonyl-phenyl)-pyridin-4-ylmethyl]-benzenesulfonamide]
Human LXR alpha
  IC50: 7860 nM
Human LXR beta
  IC50: 150 nM

## CS(=O)(=O)c1cccc(-c2ccc(CN(C(=O)c3ccccc3)S(=O)(=O)c3cccc(Cl)c3)s2)c1 [Example 9, N-Benzoyl-3-chloro-N-[5-(3-methanesulfonyl-phenyl)-thiophen-2-ylmethyl]-benzenesulfonamide]
Human LXR alpha
  IC50: 2140 nM
Human LXR beta
  IC50: 980 nM

## CC(C)(C)OC(=O)CN(Cc1ccc(-c2cccc(S(C)(=O)=O)c2)s1)S(=O)(=O)c1ccccc1C(F)(F)F [Example 37, [[5-(3-Methanesulfonyl-phenyl)-thiophen-2-ylmethyl]-(2-trifluoromethyl-benzenesulfonyl)-amino]-acetic acid tert-butyl ester]
Human LXR alpha
  IC50: 17.5 nM
Human LXR beta
  IC50: 11.5 nM

## CC(C)CN(Cc1ccc(-c2cccc(S(C)(=O)=O)c2)s1)S(=O)(=O)CC1CCCCC1 [Example 58, C-Cyclohexyl-N-isobutyl-N-[5-(3-methanesulfonyl-phenyl)-thiophen-2-ylmethyl]-methanesulfonamide]
Human LXR alpha
  IC50: 31700 nM
Human LXR beta
  IC50: 1340 nM

## CS(=O)(=O)c1cccc(-c2ccc(CN(Cc3ccccc3)S(=O)(=O)c3ccccc3C(F)(F)F)s2)c1 [Example 1, N-Benzyl-N-[5-(3-methanesulfonyl-phenyl)-thiophen-2-ylmethyl]-2-trifluoromethyl-benzenesulfonamide]
Human LXR alpha
  IC50: 205 nM
Human LXR beta
  IC50: 165 nM

## CN(Cc1ccc(-c2cccc(S(C)(=O)=O)c2)s1)S(=O)(=O)c1ccccc1C(F)(F)F [Example 27, N-[5-(3-Methanesulfonyl-phenyl)-thiophen-2-ylmethyl]-N-methyl-2-trifluoromethyl-benzenesulfonamide]
Human LXR alpha
  IC50: 29200 nM
Human LXR beta
  IC50: 2610 nM

## CC(C)CN(Cc1ccc(-c2cccc(S(C)(=O)=O)c2)s1)S(=O)(=O)c1ccccc1C(F)(F)F [Example 31, N-Isobutyl-N-[5-(3-methanesulfonyl-phenyl)-thiophen-2-ylmethyl]-2-trifluoromethyl-benzenesulfonamide]
Human LXR alpha
  IC50: 1460 nM
Human LXR beta
  IC50: 85 nM

## CC(C)CN(Cc1ccc(-c2cccc(S(C)(=O)=O)c2)s1)S(=O)(=O)c1ccccc1F [Example 17, 2-Fluoro-N-isobutyl-N-[5-(3-methanesulfonyl-phenyl)-thiophen-2-ylmethyl]-benzenesulfonamide]
Human LXR alpha
  IC50: 2210 nM
Human LXR beta
  IC50: 28 nM

## CC(C)CN(Cc1ccc(-c2cccc(S(C)(=O)=O)c2)o1)S(=O)(=O)c1ccccc1Cl [Example 13, 2-Chloro-N-isobutyl-N-[5-(3-methanesulfonyl-phenyl)-furan-2-ylmethyl]-benzenesulfonamide]
Human LXR alpha
  IC50: 3490 nM
Human LXR beta
  IC50: 40.5 nM

## CC(C)CN(Cc1ccc(-c2cccc(S(C)(=O)=O)c2)cc1F)S(=O)(=O)c1ccccc1Cl [Example 42, 2-Chloro-N-(3-fluoro-3′-methanesulfonyl-biphenyl-4-ylmethyl)-N-isobutyl-benzenesulfonamide]
Human LXR alpha
  IC50: 8.2 nM
Human LXR beta
  IC50: 6.8 nM

## CCCCS(=O)(=O)N(Cc1ccc(-c2cccc(S(C)(=O)=O)c2)s1)CC(C)C [Example 25, Butane-1-sulfonic acid isobutyl-[5-(3-methanesulfonyl-phenyl)-thiophen-2-ylmethyl]-amide]
Human LXR alpha
  IC50: 2750 nM
Human LXR beta
  IC50: 80 nM

## CS(=O)(=O)c1cccc(-c2ccc(CN(C(=O)c3ccccc3)S(=O)(=O)c3ccccc3Cl)s2)c1 [Example 6, N-Benzoyl-2-chloro-N-[5-(3-methanesulfonyl-phenyl)-thiophen-2-ylmethyl]-benzenesulfonamide]
Human LXR alpha
  IC50: 1570 nM
Human LXR beta
  IC50: 46 nM

## CCN(CC)C(=O)CN(Cc1ccc(-c2cccc(S(C)(=O)=O)c2)s1)S(=O)(=O)c1ccccc1C(F)(F)F [Example 38, N,N-Diethyl-2-[[5-(3-methanesulfonyl-phenyl)-thiophen-2-ylmethyl]-(2-trifluoromethyl-benzenesulfonyl)-amino]-acetamide]
Human LXR alpha
  IC50: 2410 nM
Human LXR beta
  IC50: 160 nM
